Source: patent publication US20230085307A1, “PYRIDAZINONE COMPOUND AND HERBICIDE” (NISSAN CHEMICAL CORPORATION, priority 2019, published 2023)

Assays:
[1] = tested on: persian speedwell; test: Test Example 5: herbicidal effect by foliage application, plastic box (Table 20, symbol R); type: in vivo, Persian speedwell (Veronica persica); conditions: foliage application, 320 g/ha, 3 weeks after application
In short: (§1)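 Plants were sown into sterilized diluvial soil under about 1.5 cm cover and kept in a greenhouse at 25° C. to 30° C. Fourteen days on, foliage received an even spray of the diluted emulsion. Herbicidal or crop effect was judged three weeks afterwards.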

[2] = tested on: chickweed; test: Test Example 4: herbicidal effect by soil treatment (Table 19, symbol P); type: in vivo, common chickweed (Stellaria media); conditions: for P: chickweed, herbicidal effect rating: AAH 320 g/ha
In short: (§2)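 Pre-emergence style soil spray: seeds under ~1.5 cm sterilized diluvial soil received a uniform coat of emulsion diluted to the predetermined herbicide amount. Greenhouse 25–30° C; readout at week three on previously defined criteria.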

[3] = tested on: windgrass; test: Test Example 4: herbicidal effect by soil treatment (Table 19, symbol L); type: in vivo, windgrass (Apera spica-venti); conditions: for L: windgrass, herbicidal effect rating: AAH 320 g/ha
In short: as §2

[4] = tested on: rice flat sedge; test: Test Example 3: herbicidal effect by foliage application, Wagner pot (Table 18, symbol E); type: in vivo, rice flat sedge (Cyperus iria); conditions: 320 g/ha
In short: (§3)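 Plants were sown in alluvial soil held under 0.1–0.5 cm standing water and grown 14 days in a greenhouse at 25–30 °C. An emulsifiable formulation, water-diluted to the set dose, was then sprayed onto the foliage, and effects were scored three weeks later using previously defined criteria.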

[5] = tested on: false cleavers; test: Test Example 4: herbicidal effect by soil treatment (Table 19, symbol Q); type: in vivo, false cleavers (Galium spurium); conditions: for Q: false cleavers, herbicidal effect rating: AAH 320 g/ha
In short: as §2

[6] = tested on: barnyard grass; test: Test Example 5: herbicidal effect by foliage application, plastic box (Table 20, symbol H); type: in vivo, barnyard grass (Echinochloa crus-galli); conditions: foliage application, 320 g/ha, 3 weeks after application
In short: as §1

[7] = tested on: blackgrass; test: Test Example 5: herbicidal effect by foliage application, plastic box (Table 20, symbol J); type: in vivo, blackgrass (Alopecurus myosuroides); conditions: foliage application, 320 g/ha, 3 weeks after application
In short: as §1

[8] = tested on: blackgrass; test: Test Example 4: herbicidal effect by soil treatment (Table 19, symbol J); type: in vivo, blackgrass (Alopecurus myosuroides); conditions: for J: blackgrass, herbicidal effect rating: AAH 320 g/ha
In short: as §2

[9] = tested on: lambsquarters; test: Test Example 5: herbicidal effect by foliage application, plastic box (Table 20, symbol O); type: in vivo, lambsquarters (Chenopodium album); conditions: foliage application, 320 g/ha, 3 weeks after application
In short: as §1

[10] = tested on: redroot pigweed; test: Test Example 4: herbicidal effect by soil treatment (Table 19, symbol N); type: in vivo, redroot pigweed (Amaranthus retroflexus); conditions: for N: redroot pigweed, herbicidal effect rating: AAH 320 g/ha
In short: as §2

[11] = tested on: green foxtail; test: Test Example 5: herbicidal effect by foliage application, plastic box (Table 20, symbol G); type: in vivo, green foxtail (Setaria viridis); conditions: foliage application, 320 g/ha, 3 weeks after application
In short: as §1

[12] = tested on: green foxtail; test: Test Example 4: herbicidal effect by soil treatment (Table 19, symbol G); type: in vivo, green foxtail (Setaria viridis); conditions: for G: green foxtail, herbicidal effect rating: AAH 320 g/ha
In short: as §2

[13] = tested on: barnyard grass; test: Test Example 4: herbicidal effect by soil treatment (Table 19, symbol H); type: in vivo, barnyard grass (Echinochloa crus-galli); conditions: for H: barnyard grass, herbicidal effect rating: AAH 320 g/ha
In short: as §2

[14] = tested on: wild oat; test: Test Example 5: herbicidal effect by foliage application, plastic box (Table 20, symbol I); type: in vivo, wild oat (Avena fatua); conditions: foliage application, 320 g/ha, 3 weeks after application
In short: as §1

[15] = tested on: Italian ryegrass; test: Test Example 5: herbicidal effect by foliage application, plastic box (Table 20, symbol K); type: in vivo, Italian ryegrass (Lolium multiflorum); conditions: foliage application, 320 g/ha, 3 weeks after application
In short: as §1

[16] = tested on: southern crabgrass; test: Test Example 4: herbicidal effect by soil treatment (Table 19, symbol F); type: in vivo, southern crabgrass (Digitaria ciliaris); conditions: for F: southern crabgrass, herbicidal effect rating: AAH 320 g/ha
In short: as §2

[17] = tested on: Chinese sprangletop; test: Test Example 3: herbicidal effect by foliage application, Wagner pot (Table 18, symbol D); type: in vivo, chinese sprangletop (Leptochloa chinensis); conditions: 320 g/ha
In short: as §3

[18] = tested on: southern crabgrass; test: Test Example 5: herbicidal effect by foliage application, plastic box (Table 20, symbol F); type: in vivo, southern crabgrass (Digitaria ciliaris); conditions: foliage application, 320 g/ha, 3 weeks after application
In short: as §1

[19] = tested on: velvetleaf; test: Test Example 4: herbicidal effect by soil treatment (Table 19, symbol M); type: in vivo, velvetleaf (Abutilon theophrasti); conditions: for M: velvetleaf, herbicidal effect rating: AAH 320 g/ha
In short: as §2

[20] = tested on: windgrass; test: Test Example 5: herbicidal effect by foliage application, plastic box (Table 20, symbol L); type: in vivo, windgrass (Apera spica-venti); conditions: foliage application, 320 g/ha, 3 weeks after application
In short: as §1

[21] = tested on: wild oat; test: Test Example 4: herbicidal effect by soil treatment (Table 19, symbol I); type: in vivo, wild oat (Avena fatua); conditions: for I: wild oat, herbicidal effect rating: AAH 320 g/ha
In short: as §2

[22] = tested on: Italian ryegrass; test: Test Example 4: herbicidal effect by soil treatment (Table 19, symbol K); type: in vivo, Italian ryegrass (Lolium multiflorum); conditions: for K: Italian ryegrass, herbicidal effect rating: AAH 320 g/ha
In short: as §2

[23] = tested on: velvetleaf; test: Test Example 5: herbicidal effect by foliage application, plastic box (Table 20, symbol M); type: in vivo, velvetleaf (Abutilon theophrasti); conditions: foliage application, 320 g/ha, 3 weeks after application
In short: as §1

[24] = tested on: lambsquarters; test: Test Example 4: herbicidal effect by soil treatment (Table 19, symbol O); type: in vivo, lambsquarters (Chenopodium album); conditions: for O: lambsquarters, herbicidal effect rating: AAH 320 g/ha
In short: as §2

[25] = tested on: persian speedwell; test: Test Example 4: herbicidal effect by soil treatment (Table 19, symbol R); type: in vivo, Persian speedwell (Veronica persica); conditions: for R: persian speedwell, herbicidal effect rating: AAH 320 g/ha
In short: as §2

[26] = tested on: barnyard grass; test: Test Example 3: herbicidal effect by foliage application, Wagner pot (Table 18, symbol H); type: in vivo, barnyard grass (Echinochloa crus-galli); conditions: 320 g/ha
In short: as §3

[27] = amount of applied herbicide 320 g/ha

## COCCOCOc1c(C)nn(C)c(=O)c1-c1c(-c2ccc(OC(C)C#N)cc2)sc2ccccc12 (racemic) [1-237]
[1]
  effect on persian speedwell (R): 5 (Herbicidal rate of 90% or more (almost completely withered))
[2]
  P: chickweed, herbicidal effect rating: 3 (Herbicidal rate of 40% or more and less than 70%)
[3]
  L: windgrass, herbicidal effect rating: 0 (Herbicidal rate of 5% or less (almost no effect))
[4]
  herbicidal effect on E (rice flat sedge), rating 0-5: 4 (Herbicidal rate of 70% or more and less than 90%)
[5]
  Q: false cleavers, herbicidal effect rating: 0 (Herbicidal rate of 5% or less (almost no effect))
[6]
  effect on barnyard grass (H): 4 (Herbicidal rate of 70% or more and less than 90%)
[7]
  effect on blackgrass (J): 4 (Herbicidal rate of 70% or more and less than 90%)
[8]
  J: blackgrass, herbicidal effect rating: 0 (Herbicidal rate of 5% or less (almost no effect))
[9]
  effect on lambsquarters (O): 5 (Herbicidal rate of 90% or more (almost completely withered))
[10]
  N: redroot pigweed, herbicidal effect rating: 5 (Herbicidal rate of 90% or more (almost completely withered))
[11]
  effect on green foxtail (G): 5 (Herbicidal rate of 90% or more (almost completely withered))
[12]
  G: green foxtail, herbicidal effect rating: 4 (Herbicidal rate of 70% or more and less than 90%)
[13]
  H: barnyard grass, herbicidal effect rating: 0 (Herbicidal rate of 5% or less (almost no effect))
[14]
  effect on wild oat (I): 3 (Herbicidal rate of 40% or more and less than 70%)
[15]
  effect on Italian ryegrass (K): 4 (Herbicidal rate of 70% or more and less than 90%)
[16]
  F: southern crabgrass, herbicidal effect rating: 1 (Herbicidal rate of 5% or more and less than 20%)
[17]
  herbicidal effect on D (Chinese sprangletop), rating 0-5: 4 (Herbicidal rate of 70% or more and less than 90%)
[18]
  effect on southern crabgrass (F): 3 (Herbicidal rate of 40% or more and less than 70%)
[19]
  M: velvetleaf, herbicidal effect rating: 1 (Herbicidal rate of 5% or more and less than 20%)
[20]
  effect on windgrass (L): 1 (Herbicidal rate of 5% or more and less than 20%)
[21]
  I: wild oat, herbicidal effect rating: 0 (Herbicidal rate of 5% or less (almost no effect))
[22]
  K: Italian ryegrass, herbicidal effect rating: 3 (Herbicidal rate of 40% or more and less than 70%)
[23]
  effect on velvetleaf (M): 4 (Herbicidal rate of 70% or more and less than 90%)
[24]
  O: lambsquarters, herbicidal effect rating: 3 (Herbicidal rate of 40% or more and less than 70%)
[25]
  R: persian speedwell, herbicidal effect rating: 5 (Herbicidal rate of 90% or more (almost completely withered))
[26]
  herbicidal effect on H (barnyard grass), rating 0-5: 5 (Herbicidal rate of 90% or more (almost completely withered))

## COCCOCc1ccc(-c2sc3ccccc3c2-c2c(O)c(C)nn(C)c2=O)cc1 [1-255]
[1]
  effect on persian speedwell (R): 5 (Herbicidal rate of 90% or more (almost completely withered))
[2]
  P: chickweed, herbicidal effect rating: 4 (Herbicidal rate of 70% or more and less than 90%)
[3]
  L: windgrass, herbicidal effect rating: 0 (Herbicidal rate of 5% or less (almost no effect))
[4]
  herbicidal effect on E (rice flat sedge), rating 0-5: 5 (Herbicidal rate of 90% or more (almost completely withered))
[5]
  Q: false cleavers, herbicidal effect rating: 0 (Herbicidal rate of 5% or less (almost no effect))
[6]
  effect on barnyard grass (H): 5 (Herbicidal rate of 90% or more (almost completely withered))
[7]
  effect on blackgrass (J): 4 (Herbicidal rate of 70% or more and less than 90%)
[8]
  J: blackgrass, herbicidal effect rating: 2 (Herbicidal rate of 20% or more and less than 40%)
[9]
  effect on lambsquarters (O): 5 (Herbicidal rate of 90% or more (almost completely withered))
[10]
  N: redroot pigweed, herbicidal effect rating: 5 (Herbicidal rate of 90% or more (almost completely withered))
[11]
  effect on green foxtail (G): 5 (Herbicidal rate of 90% or more (almost completely withered))
[12]
  G: green foxtail, herbicidal effect rating: 4 (Herbicidal rate of 70% or more and less than 90%)
[13]
  H: barnyard grass, herbicidal effect rating: 5 (Herbicidal rate of 90% or more (almost completely withered))
[14]
  effect on wild oat (I): 0 (Herbicidal rate of 5% or less (almost no effect))
[15]
  effect on Italian ryegrass (K): 5 (Herbicidal rate of 90% or more (almost completely withered))
[16]
  F: southern crabgrass, herbicidal effect rating: 3 (Herbicidal rate of 40% or more and less than 70%)
[17]
  herbicidal effect on D (Chinese sprangletop), rating 0-5: 3 (Herbicidal rate of 40% or more and less than 70%)
[18]
  effect on southern crabgrass (F): 4 (Herbicidal rate of 70% or more and less than 90%)
[19]
  M: velvetleaf, herbicidal effect rating: 4 (Herbicidal rate of 70% or more and less than 90%)
[21]
  I: wild oat, herbicidal effect rating: 0 (Herbicidal rate of 5% or less (almost no effect))
[22]
  K: Italian ryegrass, herbicidal effect rating: 4 (Herbicidal rate of 70% or more and less than 90%)
[23]
  effect on velvetleaf (M): 5 (Herbicidal rate of 90% or more (almost completely withered))
[24]
  O: lambsquarters, herbicidal effect rating: 5 (Herbicidal rate of 90% or more (almost completely withered))
[25]
  R: persian speedwell, herbicidal effect rating: 5 (Herbicidal rate of 90% or more (almost completely withered))
[26]
  herbicidal effect on H (barnyard grass), rating 0-5: 5 (Herbicidal rate of 90% or more (almost completely withered))

## CCCC(=O)Oc1c(C)nn(C)c(=O)c1-c1c(-c2ccc(OC)c(OC)c2)sc2cc(OC)ccc12 [3-081]
[2]; [27]
  P: chickweed, herbicidal effect grade: 0 (Herbicidal rate of 5% or less (almost no effect))
[3]; [27]
  L: windgrass, herbicidal effect grade: 0 (Herbicidal rate of 5% or less (almost no effect))
[5]; [27]
  Q: false cleavers, herbicidal effect grade: 0 (Herbicidal rate of 5% or less (almost no effect))
[8]; [27]
  J: blackgrass, herbicidal effect grade: 0 (Herbicidal rate of 5% or less (almost no effect))
[10]; [27]
  N: redroot pigweed, herbicidal effect grade: 0 (Herbicidal rate of 5% or less (almost no effect))
[12]; [27]
  G: green foxtail, herbicidal effect grade: 0 (Herbicidal rate of 5% or less (almost no effect))
[13]; [27]
  H: barnyard grass, herbicidal effect grade: 0 (Herbicidal rate of 5% or less (almost no effect))
[16]; [27]
  F: southern crabgrass, herbicidal effect grade: 0 (Herbicidal rate of 5% or less (almost no effect))
[19]; [27]
  M: velvetleaf, herbicidal effect grade: 0 (Herbicidal rate of 5% or less (almost no effect))
[21]; [27]
  I: wild oat, herbicidal effect grade: 0 (Herbicidal rate of 5% or less (almost no effect))
[22]; [27]
  K: Italian ryegrass, herbicidal effect grade: 0 (Herbicidal rate of 5% or less (almost no effect))
[24]; [27]
  O: lambsquarters, herbicidal effect grade: 0 (Herbicidal rate of 5% or less (almost no effect))
[25]; [27]
  R: persian speedwell, herbicidal effect grade: 2 (Herbicidal rate of 20% or more and less than 40%)
